{"source": "patent US10722501B2", "about": "(BAYER AKTIENGESELLSCHAFT, priority 2016, dated 2020)", "note": "pIC50: −log10 of the molar value."}
{"target": "T1, recombinant full-length human prolyl endopeptidase (PREP) (Homo sapiens, UniProt P48147)", "T1 construct": "To recombinant full-length human prolyl endopeptidase (PREP, R&D-Systems, 4308-SE); purchased R&D-Systems 4308-SE", "T1 sequence (P48147 1-710)": "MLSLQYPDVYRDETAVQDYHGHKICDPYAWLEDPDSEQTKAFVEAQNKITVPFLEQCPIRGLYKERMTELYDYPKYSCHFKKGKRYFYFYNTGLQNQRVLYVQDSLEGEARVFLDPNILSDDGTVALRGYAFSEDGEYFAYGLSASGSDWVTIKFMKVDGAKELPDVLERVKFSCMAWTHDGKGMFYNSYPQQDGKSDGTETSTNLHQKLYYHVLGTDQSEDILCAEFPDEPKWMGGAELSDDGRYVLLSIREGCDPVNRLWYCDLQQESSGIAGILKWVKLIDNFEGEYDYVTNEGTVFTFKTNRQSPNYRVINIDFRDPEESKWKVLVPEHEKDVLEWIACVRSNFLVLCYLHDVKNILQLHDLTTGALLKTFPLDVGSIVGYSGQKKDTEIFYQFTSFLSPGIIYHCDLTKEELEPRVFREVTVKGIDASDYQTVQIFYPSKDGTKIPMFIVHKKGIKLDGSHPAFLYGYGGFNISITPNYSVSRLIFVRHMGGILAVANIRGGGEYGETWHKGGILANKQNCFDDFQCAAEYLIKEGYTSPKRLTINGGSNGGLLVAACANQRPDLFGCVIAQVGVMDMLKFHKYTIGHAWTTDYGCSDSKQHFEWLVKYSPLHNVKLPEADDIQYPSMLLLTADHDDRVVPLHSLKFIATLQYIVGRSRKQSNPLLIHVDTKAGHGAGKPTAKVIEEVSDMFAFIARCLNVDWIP", "experiment": "Biochemical human prolyl endopeptidase (PREP) assay with fluorescently labelled substrate", "settings": "substrate Z-Gly-Pro-AMC 50 μM, 32° C., 60 min; some as mean values from multiple independent determinations", "summary_of_the_method": "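Initial rates of fluorescence increase from 50 μM Z-Gly-Pro-AMC cleavage (ex 360/em 465 nm, 60 min, 32° C) give percent PREP activity versus no-compound control, and IC50 is interpolated. Enzyme used at 0.4 nM (final, example) in Tris pH 7.5 with EDTA, GSH, BSA and Brij-35; compounds span 1 nM to 30 μM.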"}
{"smiles": "O=C(C1CC(C(F)(F)F)Cc2nn(Cc3ccc(C(F)(F)F)nc3)c(=O)n21)N1CCC(F)(F)C1", "note": "(racemic) [Example 312, (5RS,7RS)-5-[(3,3-Difluoropyrrolidin-1-yl)carbonyl]-7-(trifluoromethyl)-2-{[6-(trifluoromethyl)pyridin-3-yl]methyl}-5,6,7,8-tetrahydro[1,2,4]triazolo[4,3-a]pyridin-3(2H)-one]", "pIC50": 8.05}
{"smiles": "O=C([C@@H]1CCCc2nn(Cc3csc(C(F)(F)F)n3)c(=O)n21)N1C[C@@H](F)[C@@H](F)C1", "note": "[Example 366, (5S)-5-{[(3R,4S)-3,4-Difluoropyrrolidin-1-yl]carbonyl}-2-{[2-(trifluoromethyl)-1,3-thiazol-4-yl]methyl}-5,6,7,8-tetrahydro[1,2,4]triazolo[4,3-a]pyridin-3(2H)-one]", "pIC50": 8.68}
{"smiles": "O=C(C1C(C(F)(F)F)CCc2nn(Cc3ncc(Cl)cc3Cl)c(=O)n21)N1CC[C@H](F)C1", "note": "(single isomer, unassigned) [Example 283]", "pIC50": 8.21}
{"smiles": "O=C(C1CCc2nn(Cc3ccc(F)c(Cl)c3)c(=O)n21)N1CC(F)C1", "note": "(racemic) [Example 171, (5RS)-2-(3-Chloro-4-fluorobenzyl)-5-[(3-fluoroazetidin-1-yl)carbonyl]-2,5,6,7-tetrahydro-3H-pyrrolo[2,1-c][1,2,4]triazol-3-one]", "pIC50": 8.20}
{"smiles": "O=C([C@@H]1CCCc2nn(Cc3ccc(C(F)(F)F)nc3)c(=O)n21)N1CCSC1", "note": "[Example 503, (5S)-5-(1,3-Thiazolidin-3-ylcarbonyl)-2-{[6-(trifluoromethyl)pyridin-3-yl]methyl}-5,6,7,8-tetrahydro[1,2,4]triazolo[4,3-a]pyridin-3(2H)-one]", "pIC50": 8.70}
{"smiles": "O=C([C@@H]1CCC(F)(F)c2nn(Cc3ncc(F)cc3F)c(=O)n21)N1CCC(F)(F)C1", "note": "[Example 588, (5S)-2-[(3,5-Difluoropyridin-2-yl)methyl]-5-[(3,3-difluoropyrrolidin-1-yl)carbonyl]-8,8-difluoro-5,6,7,8-tetrahydro[1,2,4]triazolo[4,3-a]pyridin-3(2H)-one]", "pIC50": 7.74}
{"smiles": "O=C([C@@H]1CCCc2nn(CC3(c4ccc(F)cc4)CC3)c(=O)n21)N1CCC(F)(F)C1", "note": "[Example 353, (5S)-5-[(3,3-Difluoropyrrolidin-1-yl)carbonyl]-2-{[1-(4-fluorophenyl)cyclopropyl]methyl}-5,6,7,8-tetrahydro[1,2,4]triazolo[4,3-a]pyridin-3(2H)-one]", "pIC50": 8.64}
{"smiles": "O=C([C@@H]1CCCc2nn(CC3(c4cccc(Cl)n4)CC3)c(=O)n21)N1CCC(F)(F)C1", "note": "[Example 349, (5S)-2-{[1-(6-Chloropyridin-2-yl)cyclopropyl]methyl}-5-[(3,3-difluoropyrrolidin-1-yl)carbonyl]-5,6,7,8-tetrahydro[1,2,4]triazolo[4,3-a]pyridin-3(2H)-one]", "pIC50": 8.84}
{"smiles": "O=C(C1CCCc2nn(Cc3ccc4c(c3)CCCC4)c(=O)n21)N1CCCC1", "note": "(racemic) [Example 88, (5RS)-5-(Pyrrolidin-1-ylcarbonyl)-2-(5,6,7,8-tetrahydronaphthalen-2-ylmethyl)-5,6,7,8-tetrahydro[1,2,4]triazolo[4,3-a]pyridin-3(2H)-one]", "pIC50": 9.57}
{"smiles": "O=C(C1CC(C(F)(F)F)Cc2nn(Cc3ccnc(C(F)(F)F)c3F)c(=O)n21)N1CC[C@H](F)C1", "note": "(single isomer, unassigned) [Example 258]", "pIC50": 7.04}
{"smiles": "O=C(C1CC(C(F)(F)F)Cc2nn(Cc3ccnc(C(F)(F)F)c3F)c(=O)n21)N1CC(F)C1", "note": "(single isomer, unassigned) [Example 253, (5RS,7RS)-5-[(3-Fluoroazetidin-1-yl)carbonyl]-2-{[3-fluoro-2-(trifluoromethyl)pyridin-4-yl]methyl}-7-(trifluoromethyl)-5,6,7,8-tetrahydro[1,2,4]triazolo[4,3-a]pyridin-3(2H)-one]", "pIC50": 6.92}
{"smiles": "O=C([C@@H]1CCCc2nn(CC3CCC(C(F)(F)F)CC3)c(=O)n21)N1CCCC1", "note": "(single isomer, unassigned) [Example 185]", "pIC50": 9.43}
{"smiles": "Cc1ccc(Cn2nc3n(c2=O)C(C(=O)N2CCCC2C)CCC3)cc1", "note": "(racemic) [Example 162, (5RS)-2-(4-Methylbenzyl)-5-[2(RS)-(2-methylpyrrolidin-1-yl)carbonyl]-5,6,7,8-tetrahydro[1,2,4]triazolo[4,3-a]pyridin-3(2H)-one]", "pIC50": 6.89}
{"smiles": "COc1ccc(Cn2nc3n(c2=O)[C@H](C(=O)N2CCC(F)(F)C2)CCC3)nc1", "note": "[Example 381, (5S)-5-[(3,3-Difluoropyrrolidin-1-yl)carbonyl]-2-[(5-methoxypyridin-2-yl)methyl]-5,6,7,8-tetrahydro[1,2,4]triazolo[4,3-a]pyridin-3(2H)-one]", "pIC50": 8.26}
{"smiles": "O=C(C1CC(C(F)(F)F)Cc2nn(Cc3ccnc(C(F)(F)F)c3F)c(=O)n21)N1CCC(F)(F)C1", "note": "(single isomer, unassigned) [Example 252, (5RS,7RS)-5-[(3,3-Difluoropyrrolidin-1-yl)carbonyl]-2-{[3-fluoro-2-(trifluoromethyl)pyridin-4-yl]methyl}-7-(trifluoromethyl)-5,6,7,8-tetrahydro[1,2,4]triazolo[4,3-a]pyridin-3(2H)-one]", "pIC50": 8.51}
{"smiles": "O=C([C@@H]1CCCc2nn(Cc3nc(C(F)(F)F)no3)c(=O)n21)N1C[C@@H](F)[C@@H](F)C1", "note": "[Example 500, (5S)-5-{[(3R,4S)-3,4-Difluoropyrrolidin-1-yl]carbonyl}-2-{[3-(trifluoromethyl)-1,2,4-oxadiazol-5-yl]methyl}-5,6,7,8-tetrahydro[1,2,4]triazolo[4,3-a]pyridin-3(2H)-one]", "pIC50": 8.29}
{"smiles": "Cc1ccc(Cn2nc3n(c2=O)[C@H](C(=O)N2CCC4CC42)CCC3)cc1", "note": "(single isomer, unassigned) [Example 189]", "pIC50": 7.47}
{"smiles": "O=C(C1CC(C(F)(F)F)Cc2nn(Cc3ccnc(C(F)(F)F)c3F)c(=O)n21)N1CCC(F)(F)C1", "note": "(racemic) [Example 251, (5RS,7RS)-5-[(3,3-Difluoropyrrolidin-1-yl)carbonyl]-2-{[3-fluoro-2-(trifluoromethyl)pyridin-4-yl]methyl}-7-(trifluoromethyl)-5,6,7,8-tetrahydro[1,2,4]triazolo[4,3-a]pyridin-3(2H)-one]", "pIC50": 8.47}
{"smiles": "O=C([C@@H]1CCCc2nn(CCc3ccc(F)cc3)c(=O)n21)N1CC(F)(F)C1", "note": "[Example 345, (5S)-5-[(3,3-Difluoroazetidin-1-yl)carbonyl]-2-[2-(4-fluorophenyl)ethyl]-5,6,7,8-tetrahydro[1,2,4]triazolo[4,3-a]pyridin-3(2H)-one]", "pIC50": 8.19}
{"smiles": "Cc1ccc(Cn2nc3n(c2=O)[C@H](C(=O)N2CC[C@@H](F)C2)CCC3)cc1", "note": "[Example 111, (5S)-5-{[(3R)-3-Fluoropyrrolidin-1-yl]carbonyl}-2-(4-methylbenzyl)-5,6,7,8-tetrahydro[1,2,4]triazolo[4,3-a]pyridin-3(2H)-one]", "pIC50": 9.39}
{"smiles": "O=C(C1CCCc2nn(Cc3cccc(F)c3)c(=O)n21)N1CCCC1", "note": "(racemic) [Example 16, (5RS)-2-(3-Fluorobenzyl)-5-(pyrrolidin-1-ylcarbonyl)-5,6,7,8-tetrahydro[1,2,4]triazolo[4,3-a]pyridin-3(2H)-one]", "pIC50": 8.66}
{"smiles": "COc1ccc(Cn2nc3n(c2=O)[C@H](C(=O)N2CC(F)(F)C2)CCC3)nc1", "note": "[Example 532, (5S)-5-[(3,3-Difluoroazetidin-1-yl)carbonyl]-2-[(5-methoxypyridin-2-yl)methyl]-5,6,7,8-tetrahydro[1,2,4]triazolo[4,3-a]pyridin-3(2H)-one]", "pIC50": 7.47}
